Measurements published in paper PMC7849821, “The deubiquitylase USP9X controls ribosomal stalling” (The Journal of Cell Biology, 2021).

Experiments:
USP1 = USP1 (Homo sapiens, UniProt O94782); experiment: DUB biochemical assay (Ub-rhodamine cleavage); conditions: Ub-rhodamine substrate, DUB panel Fig. S2 A
Protocol: (§1) The assay was performed in a final volume of 6 µl in assay buffer containing 20 mM Tris buffer, pH 8, 0.03% bovine γ-globulin, 0.01% Triton X-100, and 1 mM glutathione. Nanoliter quantities of 10-point, threefold serial dilutions in DMSO were predispensed into 1,536 assay plates for a final top concentration between […] and subsequent half-log dilutions. 2× DUB (0.025 nM final concentration) was added and preincubated for 30 min at room temperature. 2× ubiquitin (Ub)-rhodamine (25 nM final concentration) was added to initiate the reaction. Fluorescence readings (excitation: 485 nm, emission: 535 nm) were acquired over 12 min (Envision reader). The slope of the data from each point was used to determine IC50.
(§2) For all assays, data were reported as percent inhibition compared with control wells. IC50 values were determined by curve fitting of the standard four-parameter logistic fitting algorithm included in the Activity Base software package IDBS XE Designer Model205. Data were fitted using the Levenburg–Marquardt algorithm.

USP10 = USP10 (Homo sapiens, UniProt Q14694); experiment: DUB biochemical assay (Ub-rhodamine cleavage); conditions: Ub-rhodamine substrate, DUB panel Fig. S2 A
Protocol: as §1, §2

USP11 = USP11 (Homo sapiens, UniProt P51784); experiment: DUB biochemical assay (Ub-rhodamine cleavage); conditions: Ub-rhodamine substrate, DUB panel Fig. S2 A
Protocol: as §1, §2

USP12 = USP12 (Homo sapiens, UniProt O75317); experiment: DUB biochemical assay (Ub-rhodamine cleavage); conditions: Ub-rhodamine substrate, DUB panel Fig. S2 A
Protocol: as §1, §2

USP13 = USP13 (Homo sapiens, UniProt Q92995); experiment: DUB biochemical assay (Ub-rhodamine cleavage); conditions: Ub-rhodamine substrate, DUB panel Fig. S2 A
Protocol: as §1, §2

USP15 = USP15 (Homo sapiens, UniProt Q9Y4E8); experiment: DUB biochemical assay (Ub-rhodamine cleavage); conditions: Ub-rhodamine substrate, DUB panel Fig. S2 A
Protocol: as §1, §2

USP18 = USP18 (Homo sapiens, UniProt Q9UMW8); experiment: DUB biochemical assay (Ub-rhodamine cleavage); conditions: Ub-rhodamine substrate, DUB panel Fig. S2 A
Protocol: as §1, §2

USP2 = USP2 (Homo sapiens, UniProt O75604); experiment: DUB biochemical assay (Ub-rhodamine cleavage); conditions: Ub-rhodamine substrate, DUB panel Fig. S2 A
Sequence of USP2 (O75604 whole entry, species assumed): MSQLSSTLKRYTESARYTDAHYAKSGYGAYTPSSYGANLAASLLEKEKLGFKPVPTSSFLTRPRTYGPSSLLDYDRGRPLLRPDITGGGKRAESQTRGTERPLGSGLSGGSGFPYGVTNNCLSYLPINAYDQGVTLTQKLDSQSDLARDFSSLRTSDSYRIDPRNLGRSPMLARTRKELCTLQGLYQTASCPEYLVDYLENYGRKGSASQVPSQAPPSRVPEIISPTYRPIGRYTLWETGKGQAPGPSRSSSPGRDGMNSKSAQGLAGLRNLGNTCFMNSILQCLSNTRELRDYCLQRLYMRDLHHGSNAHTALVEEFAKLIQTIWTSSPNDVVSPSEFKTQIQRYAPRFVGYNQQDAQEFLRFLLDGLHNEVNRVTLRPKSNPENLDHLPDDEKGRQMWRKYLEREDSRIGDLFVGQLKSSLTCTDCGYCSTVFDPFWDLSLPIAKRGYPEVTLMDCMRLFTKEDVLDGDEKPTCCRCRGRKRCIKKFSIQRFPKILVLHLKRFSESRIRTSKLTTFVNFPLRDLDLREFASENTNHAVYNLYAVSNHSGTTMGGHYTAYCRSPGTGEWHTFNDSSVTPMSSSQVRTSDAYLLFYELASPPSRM
Protocol: as §1, §2

USP22 = USP22 (Homo sapiens, UniProt Q9UPT9); experiment: DUB biochemical assay (Ub-rhodamine cleavage); conditions: Ub-rhodamine substrate, DUB panel Fig. S2 A
Sequence of USP22 (Q9UPT9 whole entry, species assumed): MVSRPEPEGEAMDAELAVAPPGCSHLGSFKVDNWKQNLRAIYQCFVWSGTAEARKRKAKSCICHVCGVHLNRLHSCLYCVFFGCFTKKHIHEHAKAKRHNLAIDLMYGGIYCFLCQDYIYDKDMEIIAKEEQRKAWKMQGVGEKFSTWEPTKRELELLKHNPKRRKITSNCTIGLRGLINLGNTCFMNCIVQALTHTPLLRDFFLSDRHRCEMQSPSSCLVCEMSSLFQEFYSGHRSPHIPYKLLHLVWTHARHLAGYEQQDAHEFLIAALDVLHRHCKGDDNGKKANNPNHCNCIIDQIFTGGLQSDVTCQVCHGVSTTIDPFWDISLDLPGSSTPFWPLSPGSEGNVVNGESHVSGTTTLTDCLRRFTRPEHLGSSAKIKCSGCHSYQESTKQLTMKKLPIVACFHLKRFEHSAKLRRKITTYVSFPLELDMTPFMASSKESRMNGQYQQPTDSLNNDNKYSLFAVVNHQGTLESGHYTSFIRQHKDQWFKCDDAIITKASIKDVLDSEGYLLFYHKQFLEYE
Sequence of USP22 (Q14CW9 whole entry partner, species assumed): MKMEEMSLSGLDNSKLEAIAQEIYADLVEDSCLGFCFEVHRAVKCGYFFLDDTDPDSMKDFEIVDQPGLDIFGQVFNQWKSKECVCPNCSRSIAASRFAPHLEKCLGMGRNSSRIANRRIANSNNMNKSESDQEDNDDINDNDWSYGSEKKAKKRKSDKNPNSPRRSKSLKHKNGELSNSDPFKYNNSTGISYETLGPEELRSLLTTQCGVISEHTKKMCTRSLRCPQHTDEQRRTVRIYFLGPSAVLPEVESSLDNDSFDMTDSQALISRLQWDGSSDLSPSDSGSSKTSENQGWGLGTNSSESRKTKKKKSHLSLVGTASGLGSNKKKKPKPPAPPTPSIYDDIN
Sequence of USP22 (Q9NPA8 whole entry partner, species assumed): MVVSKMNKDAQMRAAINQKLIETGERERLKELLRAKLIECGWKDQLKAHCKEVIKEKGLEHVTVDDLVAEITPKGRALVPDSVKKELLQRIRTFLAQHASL
Protocol: as §1, §2

USP24 = USP24 (Homo sapiens, UniProt Q9UPU5); experiment: DUB biochemical assay (Ub-rhodamine cleavage); conditions: Ub-rhodamine substrate, DUB panel Fig. S2 A
Protocol: as §1, §2

USP25 = USP25 (Homo sapiens, UniProt Q9UHP3); experiment: DUB biochemical assay (Ub-rhodamine cleavage); conditions: Ub-rhodamine substrate, DUB panel Fig. S2 A
Sequence of USP25 (Q9UHP3 whole entry, species assumed): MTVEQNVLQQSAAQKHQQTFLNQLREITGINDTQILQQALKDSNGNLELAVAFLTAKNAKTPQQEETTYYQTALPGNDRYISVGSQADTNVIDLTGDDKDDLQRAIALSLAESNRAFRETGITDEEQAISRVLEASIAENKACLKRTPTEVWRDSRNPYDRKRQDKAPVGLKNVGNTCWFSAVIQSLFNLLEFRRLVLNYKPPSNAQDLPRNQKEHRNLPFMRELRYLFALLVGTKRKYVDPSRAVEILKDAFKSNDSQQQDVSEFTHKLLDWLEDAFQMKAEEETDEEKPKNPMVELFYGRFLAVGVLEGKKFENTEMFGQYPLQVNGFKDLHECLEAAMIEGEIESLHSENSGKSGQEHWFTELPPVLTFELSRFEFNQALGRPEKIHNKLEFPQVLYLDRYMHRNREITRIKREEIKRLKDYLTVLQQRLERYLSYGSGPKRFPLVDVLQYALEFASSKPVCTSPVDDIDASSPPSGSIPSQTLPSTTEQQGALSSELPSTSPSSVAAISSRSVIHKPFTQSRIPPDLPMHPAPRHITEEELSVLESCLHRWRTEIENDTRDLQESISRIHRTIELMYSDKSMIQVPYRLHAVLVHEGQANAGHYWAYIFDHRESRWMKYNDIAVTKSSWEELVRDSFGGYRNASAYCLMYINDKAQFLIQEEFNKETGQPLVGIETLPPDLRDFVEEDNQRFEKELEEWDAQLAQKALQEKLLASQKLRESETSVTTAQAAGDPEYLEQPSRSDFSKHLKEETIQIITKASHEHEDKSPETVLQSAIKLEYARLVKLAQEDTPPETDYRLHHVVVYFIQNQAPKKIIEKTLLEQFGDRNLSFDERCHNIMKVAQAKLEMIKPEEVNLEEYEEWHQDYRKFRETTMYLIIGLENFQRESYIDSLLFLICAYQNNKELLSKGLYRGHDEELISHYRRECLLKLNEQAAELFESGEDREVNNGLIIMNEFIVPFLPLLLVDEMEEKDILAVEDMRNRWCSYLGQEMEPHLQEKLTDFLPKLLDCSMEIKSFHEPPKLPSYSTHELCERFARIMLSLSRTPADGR
Protocol: as §1, §2

USP28 = USP28 (Homo sapiens, UniProt Q96RU2); experiment: DUB biochemical assay (Ub-rhodamine cleavage); conditions: Ub-rhodamine substrate, DUB panel Fig. S2 A
Sequence of USP28 (Q96RU2 whole entry, species assumed): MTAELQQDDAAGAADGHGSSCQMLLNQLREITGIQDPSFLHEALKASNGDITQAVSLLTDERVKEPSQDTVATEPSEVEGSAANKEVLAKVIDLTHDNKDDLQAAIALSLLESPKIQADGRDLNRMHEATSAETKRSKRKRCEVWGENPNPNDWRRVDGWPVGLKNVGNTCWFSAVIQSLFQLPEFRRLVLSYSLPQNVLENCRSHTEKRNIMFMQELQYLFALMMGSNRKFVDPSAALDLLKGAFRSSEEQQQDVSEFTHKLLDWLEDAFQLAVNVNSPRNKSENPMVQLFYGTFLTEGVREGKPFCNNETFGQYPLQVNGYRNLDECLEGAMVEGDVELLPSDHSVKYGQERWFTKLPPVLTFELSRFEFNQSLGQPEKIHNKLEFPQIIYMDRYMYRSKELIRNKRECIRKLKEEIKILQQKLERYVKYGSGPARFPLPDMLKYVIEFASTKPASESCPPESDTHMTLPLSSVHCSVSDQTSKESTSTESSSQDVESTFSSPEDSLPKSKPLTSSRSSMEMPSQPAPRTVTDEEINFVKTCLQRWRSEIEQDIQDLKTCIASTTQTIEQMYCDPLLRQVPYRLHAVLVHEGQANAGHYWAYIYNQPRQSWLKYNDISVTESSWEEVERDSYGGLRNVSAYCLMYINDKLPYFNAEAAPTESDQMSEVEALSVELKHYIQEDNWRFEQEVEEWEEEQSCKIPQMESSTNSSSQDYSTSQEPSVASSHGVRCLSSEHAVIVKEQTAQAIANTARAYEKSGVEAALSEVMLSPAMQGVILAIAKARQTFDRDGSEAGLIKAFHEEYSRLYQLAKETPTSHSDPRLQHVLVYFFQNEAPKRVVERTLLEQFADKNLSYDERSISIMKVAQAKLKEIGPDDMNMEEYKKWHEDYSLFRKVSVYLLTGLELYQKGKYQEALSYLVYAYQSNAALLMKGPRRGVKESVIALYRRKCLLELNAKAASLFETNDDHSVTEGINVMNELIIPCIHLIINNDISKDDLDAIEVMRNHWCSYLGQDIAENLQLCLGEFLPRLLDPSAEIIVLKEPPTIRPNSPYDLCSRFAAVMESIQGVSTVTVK
Protocol: as §1, §2

USP33 = USP33 (Homo sapiens, UniProt Q8TEY7); experiment: DUB biochemical assay (Ub-rhodamine cleavage); conditions: Ub-rhodamine substrate, DUB panel Fig. S2 A
Protocol: as §1, §2

USP36 = USP36 (Homo sapiens, UniProt Q9P275); experiment: DUB biochemical assay (Ub-rhodamine cleavage); conditions: Ub-rhodamine substrate, DUB panel Fig. S2 A
Sequence of USP36 (Q9P275 whole entry, species assumed): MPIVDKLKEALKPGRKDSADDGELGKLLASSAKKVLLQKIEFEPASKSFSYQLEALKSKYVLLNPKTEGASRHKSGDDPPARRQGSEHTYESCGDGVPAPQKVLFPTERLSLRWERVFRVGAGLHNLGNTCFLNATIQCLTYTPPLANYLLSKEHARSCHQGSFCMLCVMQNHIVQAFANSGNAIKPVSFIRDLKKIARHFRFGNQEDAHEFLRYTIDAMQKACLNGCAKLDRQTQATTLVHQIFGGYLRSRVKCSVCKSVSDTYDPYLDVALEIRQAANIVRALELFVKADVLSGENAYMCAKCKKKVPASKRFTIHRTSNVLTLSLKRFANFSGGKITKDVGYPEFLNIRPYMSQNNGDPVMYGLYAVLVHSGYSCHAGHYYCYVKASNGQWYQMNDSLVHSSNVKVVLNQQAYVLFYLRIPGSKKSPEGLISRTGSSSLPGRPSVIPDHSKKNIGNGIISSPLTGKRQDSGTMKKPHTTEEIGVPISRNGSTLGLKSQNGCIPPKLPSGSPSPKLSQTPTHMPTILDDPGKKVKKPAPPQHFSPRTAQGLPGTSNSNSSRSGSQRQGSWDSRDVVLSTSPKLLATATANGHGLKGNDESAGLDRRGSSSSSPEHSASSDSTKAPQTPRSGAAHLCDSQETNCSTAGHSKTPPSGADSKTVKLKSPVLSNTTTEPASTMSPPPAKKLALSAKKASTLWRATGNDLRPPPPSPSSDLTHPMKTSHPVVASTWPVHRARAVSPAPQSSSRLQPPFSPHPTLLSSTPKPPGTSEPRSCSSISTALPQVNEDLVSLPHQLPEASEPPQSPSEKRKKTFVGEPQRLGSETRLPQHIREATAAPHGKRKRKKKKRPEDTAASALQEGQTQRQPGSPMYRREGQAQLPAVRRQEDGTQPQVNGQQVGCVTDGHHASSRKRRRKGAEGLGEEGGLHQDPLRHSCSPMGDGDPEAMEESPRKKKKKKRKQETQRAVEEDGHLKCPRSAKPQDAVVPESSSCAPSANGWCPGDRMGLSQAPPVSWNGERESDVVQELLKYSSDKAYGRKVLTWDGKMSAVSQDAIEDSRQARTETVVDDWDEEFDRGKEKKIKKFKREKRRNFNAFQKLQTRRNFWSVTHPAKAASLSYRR
Protocol: as §1, §2

USP37 = USP37 (Homo sapiens, UniProt Q86T82); experiment: DUB biochemical assay (Ub-rhodamine cleavage); conditions: Ub-rhodamine substrate, DUB panel Fig. S2 A
Protocol: as §1, §2

USP4 = USP4 (Homo sapiens, UniProt Q13107); experiment: DUB biochemical assay (Ub-rhodamine cleavage); conditions: Ub-rhodamine substrate, DUB panel Fig. S2 A
Protocol: as §1, §2

USP47 = USP47 (Homo sapiens, UniProt Q96K76); experiment: DUB biochemical assay (Ub-rhodamine cleavage); conditions: Ub-rhodamine substrate, DUB panel Fig. S2 A
Protocol: as §1, §2

USP5 = USP5 (Homo sapiens, UniProt P45974); experiment: DUB biochemical assay (Ub-rhodamine cleavage); conditions: Ub-rhodamine substrate, DUB panel Fig. S2 A
Protocol: as §1, §2

USP7 = USP7 (Homo sapiens, UniProt Q93009); experiment: DUB biochemical assay (Ub-rhodamine cleavage); conditions: Ub-rhodamine substrate, DUB panel Fig. S2 A
Protocol: as §1, §2

USP8 = USP8 (Homo sapiens, UniProt P40818); experiment: DUB biochemical assay (Ub-rhodamine cleavage); conditions: Ub-rhodamine substrate, DUB panel Fig. S2 A
Protocol: as §1, §2

CEP55 = experiment: MSD ELISA assay for CEP55 reduction in BxPC3 cells; assay type: cell-based; conditions: Homo sapiens, BXPC-3, BxPC3 pancreatic cancer cells, 6 h exposure, read-out: IC50 for modulation (reduction) of CEP55 expression
Protocol: BxPC3 cells were seeded in 96-well plates and exposed to FT709 (20 µM top concentration, 1:2 serial dilutions) for 6 h. Cell lysates were prepared in RIPA buffer and stored at −80°C until analysis. Samples were analyzed by an MSD ELISA assay (Pacific Biolabs) using a CEP55 antibody (Novux; 1:500 dilution in PBS) captured overnight at 4°C, 30 µl lysates per well, 30 µl of CEP55 antibody (CST; 81693) diluted 1:2,000 in 1% blocker A/PBS and 30 µl per well of a 1:4,000 diluted goat anti-rabbit sulfo-tag, 1% blocker A/PBS. Plates were read on a MSD Sector Imager 2400. Results were transformed as percentage DMSO controls and curves fitted using a nonlinear regression to determine the IC50. Results presented are based on duplicate values.

ZNF598 = experiment: Immunoblot of ZNF598 in FT709-treated HCT116 cells; assay type: cell-based; conditions: 10 µM, 4 or 24 h
Protocol: (§3) Cultured cells were lysed for 10 min at 4°C in RIPA buffer (10 mM Tris-HCl, pH 7.5, 150 mM NaCl, 1% Triton X-100, 0.1% SDS, and 1% sodium deoxycholate) supplemented with mammalian protease inhibitor cocktail (Sigma-Aldrich). Proteins were resolved using SDS-PAGE (Invitrogen NuPage gel 4–12%), transferred to nitrocellulose membrane, blocked in 5% fat-free milk or 5% bovine serum albumin in TBS supplemented with Tween-20, and probed with primary antibodies overnight. Visualization and quantification of Western blots were performed using IRdye 800CW and 680LT coupled secondary antibodies and an Odyssey infrared scanner (LI-COR Biosciences).

HCT116 cells = experiment: SILAC-based proteome analysis of FT709-treated HCT116 cells; assay type: cell-based; conditions: 10 µM, 24 h
Protocol: HCT116 cells were grown in SILAC DMEM supplemented with 10% dialyzed FBS (Dundee Cell Products) at 37°C and 5% CO2. To generate light, medium, and heavy stable isotope-labeled cells, arginine- and lysine-free DMEM medium was supplemented with 200 mg/liter L-proline and either L-lysine (Lys0) together with L-arginine (Arg0; light), L-lysine-^2H4 (Lys4) with L-arginine-U-^13C6 (Arg6; medium), or L-lysine-U-^13C6-^15N2 (Lys8) with L-arginine-U-^13C6-^15N4 (Arg10; heavy) at final concentrations of 84 mg/liter for the arginine and 146 mg/liter for the lysine until fully metabolically labeled. […] Relative protein concentrations of the lysates were determined using a bicinchoninic acid assay (Thermo Fisher Scientific), and light-, medium-, and heavy-labeled lysates were combined in a 1:1:1 ratio.
Protein extracts (1.2–1.5 mg) containing SDS were reduced with 5 mM dithiothreitol, alkylated with 20 mM iodoacetamide, and then subjected to methanol/chloroform extraction. […] Peptide fractions were analyzed in technical replicates by nano-UPLC-MS/MS using a Dionex Ultimate 3000 nano UPLC with EASY spray column (75 µm × 500 mm, 2 µm particle size; Thermo Fisher Scientific) with a 60-min gradient of 2% acetonitrile/0.1% formic acid/5% DMSO to 35% acetonitrile/0.1% formic acid/5% DMSO at a flow rate of ∼250 nl/min. […]

[1] = system: HEK293 Flp-In T-Rex GFP-P2A-(KAAA)21-P2A-RFP WT cells; experiment: Fluorescent ribosomal stalling reporter, FACS RFP:GFP ratio; assay type: cell-based; conditions: 10 µM for 72 h
Source text: The HEK293 cells used in this study (HEK293-Flp-In TREX GFP-P2A-[K^AAA]21 -P2A-RFP) have been engineered to express a reporter system for terminal ribosomal stalling ([Juszkiewicz and Hegde, 2017]). The reporter cassette contains GFP (N-terminal) and RFP (C-terminal) separated by a FLAG-tagged stalling reporter (SR) incorporating a polyA stretch of twenty-one codons (K^AAA)21 (Fig. 5 B). This is flanked by viral P2A sequences, at which ribosomes skip formation of a peptide bond, without interrupting translation elongation. Consequently, unimpaired translation generates 3 proteins (GFP, FLAG-SR, RFP) in equal amounts. Stalling at the FLAG-SR aborts translation before RFP synthesis, leading to a substoichiometric RFP:GFP ratio. Failure to effectively respond to stalled ribosomes allows eventual read-through and a consequent rise in the RFP:GFP ratio that can be assessed by fluorescence-activated cell sorting (Fig. 5 B, schematic diagram; [Juszkiewicz and Hegde, 2017]). […] We also analyzed three of the cell populations treated with individual gRNAs as represented in Fig. 5 A that show varying effectiveness for USP9X depletion. […] We propose that USP9X inhibition may promote read-through by a combined effect on each of these RING E3 ligases linked to the ribosomal quality control pathway. […]

ZNF598, MKRN1 and MKRN2 = experiment: Immunoblot of ZNF598 and Makorins in FT709-treated (KAAA)21 WT cells; assay type: cell-based; conditions: (KAAA)21 WT HEK293 cells, indicated concentrations for 48 h
Protocol: as §3

ZNF598 and MKRN2 = experiment: Immunoblot of FT709 responsive markers in A549 and U2OS cells; assay type: cell-based; conditions: 10 µM
Protocol: as §3

Cc1nc2c(C(O)C(=O)N3CC4=C(C3)CN(S(=O)(=O)c3cnc5c(c3)OCCO5)C4)cccc2o1 (centres unmarked) [FT709]
IC50 (USP1): > 25.8 µM | IC50 (USP10): > 33.3 µM | IC50 (USP11): > 33.3 µM | IC50 (USP12): > 33.3 µM | IC50 (USP13): > 26.7 µM | IC50 (USP15): > 26.7 µM | IC50 (USP18): > 27.9 µM | IC50 (USP2): > 26.7 µM | IC50 (USP22): > 26.7 µM | IC50 (USP24): > 26.7 µM | IC50 (USP25): > 26.7 µM | IC50 (USP28): > 26.7 µM | IC50 (USP33): > 26.7 µM | IC50 (USP36): > 26.7 µM | IC50 (USP37): > 33.3 µM | IC50 (USP4): > 33.3 µM | IC50 (USP47): > 33.3 µM | IC50 (USP5): > 33.3 µM | IC50 (USP7): > 25.8 µM | IC50 (USP8): > 25 µM | IC50 (CEP55): 0.131 µM | ZNF598 protein level (ZNF598): reduction of ZNF598 | Protein abundance change in SILAC proteomic datasets (HCT116 cells): de-enrichment of ZNF598 and MKRN2 | polyA read-through (RFP:GFP ratio) [1]: recapitulate polyA read-through | ZNF598, MKRN1 and MKRN2 protein levels (ZNF598, MKRN1 and MKRN2): smaller reduction in ZNF598 levels but was again accompanied by parallel reductions in MKRN1 and 2 | FT709-dependent loss of ZNF598 versus MKRN2 (ZNF598 and MKRN2): loss of ZNF598 is minor compared with MKRN2
